According to US20110028509A1, “Sulfonamides” (MERCK SERONO SA, priority 2008, published 2011):

Assays:
Assay type in all cases: cell-based
CXCR3 [1] = biological target: T1, CXCR3 (Homo sapiens, UniProt P49682); test: Chemotaxis assay IP10, L1.2 recombinant cells expressing hCXCR3; details: L1.2 hCXCR3 cells, IP10 around 0.3 nM, 4 hours
T1 sequence (P49682 1-368): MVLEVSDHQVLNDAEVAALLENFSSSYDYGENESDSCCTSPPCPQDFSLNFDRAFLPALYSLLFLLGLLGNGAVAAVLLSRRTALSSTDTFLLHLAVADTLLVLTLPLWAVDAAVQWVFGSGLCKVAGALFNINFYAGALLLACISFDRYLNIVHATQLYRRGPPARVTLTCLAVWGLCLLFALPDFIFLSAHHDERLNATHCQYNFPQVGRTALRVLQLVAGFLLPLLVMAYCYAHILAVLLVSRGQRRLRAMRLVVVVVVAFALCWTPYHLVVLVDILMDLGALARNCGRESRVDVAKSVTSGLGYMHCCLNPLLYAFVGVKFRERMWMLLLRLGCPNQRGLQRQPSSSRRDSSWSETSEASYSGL
Description: Human CXCR3 cDNA was amplified by PCR from a human cells cDNA library (Clontech) and subcloned into pcDNA3.1 (Invitrogen). Murine pre-B L1.2 cells were transfected with hCXCR3-pcDNA3.1 and were grown at 37° C., 5% CO2 in RPMI 1640 medium (Invitrogen, USA) supplemented with 5% heat inactivated fetal calf serum (Cancerra, Australia), 2 mM glutamine (Invitrogen), 50 units ml−1 penicillin, 50 μml−1 streptomycin. Stable transfectant clonal populations were selected using 800 μg/ml geneticin.
L1.2 recombinant cells expressing the receptor hCXCR3 were maintained in culture in RPMI 1640 (invitrogen), 5% Foetal Bovine Serum (invitrogen), 2 mM glutamine(invitrogen), 50 u/ml penicillin/streptomycin (invitrogen), at 37° C.-5% CO2—in an H2O saturated incubator. In order to stimulate the expression of the receptor, cells were incubated overnight with 5 mM butyric acid (Sigma)
This mix of cells/compounds was then incubated at 37° C.-5% CO2—in an H2O saturated incubator during 30 minutes. Cells were then dispensed as a drop on each corresponding wells of the chemotaxis system. Cell migration was then induced at 37° C.-5% CO2—in an H2O incubator during 4 hours. Filters were then removed and cells that had migrated were transferred in a black plate (Costar). The plates were stored overnight at −80° C. Cell migration ratio was calculated using the cyquant dye (Molecular Probes-C7026).

CXCR3 [2] = biological target: T1, CXCR3; test: Chemotaxis assay ITAC (CXCL11), L1.2-CXCR3 cells; set-up: expressed in transfected cells; details: 1 nM CXCL11 (I-TAC), 4 hours
How it was run: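 Murine pre-B L1.2 cells stably expressing human CXCR3, pretreated 24 h with 5 mM butyric acid, preincubated with compound 30 min at 37 °C in 1% DMSO. Migration toward 1 nM CXCL11 (also with compound) through 8 μm filters for 4 h at 37 °C; migrated cells counted with CyQuant GR dye.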

CXCR3 [3] = biological target: T1, CXCR3; test: CXCR3 Ca2+ mobilization (FLIPR), stable hCXCR3-CHO cell line, I-TAC stimulated; set-up: host or cells: CHO cells stably expressing hCXCR3; details: hCXCR3-CHO cells, I-TAC 100 nM stimulated Ca2+ response; read-out: Ca-ITAC
How it was run: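 CHO cells stably expressing hCXCR3, grown 18 hours after plating, loaded with calcium indicator dye 60 minutes; compounds equilibrated 20 minutes at room temperature. Fluorescence change evoked by 100 nM I-TAC read on FLIPR; activity expressed as percent of I-TAC response without compound (100%).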

| IC50 (CXCR3 [1]) [µM] | IC50 (CXCR3 [2]) [nM] | IC50 (CXCR3 [3]) [nM] | Compound |
| --- | --- | --- | --- |
| 0.02 | 120 | 20 | N#Cc1ccc(S(=O)(=O)N(Cc2ccc(NC(=O)C3(c4ccccc4)CC3)cc2)Cc2ccccn2)cc1 [Example 163] |
| 0.01 | 20 | 20 | CCOc1ccc(S(=O)(=O)N(Cc2ccc(C(=O)NCC(O)c3ccccc3)cc2)Cc2ccccn2)cc1 (centres unmarked) [Example 84] |
| 0.01 | 20 | 20 | N#Cc1ccc(S(=O)(=O)N(Cc2ccc(C(=O)NCC(O)c3ccccc3)cc2)Cc2ccccn2)cc1 (centres unmarked) [Example 102] |
| 0.339 |  | 131 | O=C(NS(=O)(=O)c1cccc(F)c1)c1ccc(CN(Cc2ccccn2)S(=O)(=O)c2ccc(Cl)cc2)cc1 [Example 51, N-(3-fluorobenzenesulfonyl)-4-{[[(4-chlorophenyl)sulfonyl](pyridin-2-yl-methyl)amino]methyl}benzamide] |
| 0.16 |  | 400 | CC(CNC(=O)c1ccc(CN(Cc2ccccn2)S(=O)(=O)c2ccc(C#N)cc2)cc1)c1ccccc1 (centres unmarked) [Example 98] |
| 0.12 |  | 100 | O=C(Cc1cccc(Cl)c1)Nc1ccc(CN(Cc2ccccn2)S(=O)(=O)c2ccc(Cl)cc2)cc1 [Example 160] |
| 0.01 | 30 | 10 | CCOc1ccc(S(=O)(=O)N(Cc2ccc(C(=O)NC3(c4ccccc4)CC3)cc2)Cc2ccccn2)cc1 [Example 88] |
| 0.07 | 170 | 170 | O=C(Nc1ccc(CN(Cc2ccccn2)S(=O)(=O)c2ccc(Cl)cc2)cc1)C1(c2ccccc2)CC1 [Example 162, 1-Phenyl-cyclopropanecarboxylic acid (4-{[(4-chloro-benzenesulfonyl)-pyridin-2-ylmethyl-amino]-methyl}-phenyl)-amide] |
| 0.19 |  | 60 | N#Cc1ccc(S(=O)(=O)N(Cc2ccc(C(=O)NC3(c4cccc(C#N)c4)CC3)cc2)Cc2ccccn2)cc1 [Example 101] |

The next lines start with the compound.

| Compound | IC50 (CXCR3 [1]) [µM] | IC50 (CXCR3 [2]) [nM] | IC50 (CXCR3 [3]) [nM] |
| --- | --- | --- | --- |
| CCOc1ccc(S(=O)(=O)N(Cc2ccc(-c3nnn[nH]3)c(F)c2)Cc2ccccn2)cc1 [Example 80] | 0.158 | 909 | 55 |
| O=S(=O)(c1ccc(Cl)cc1)N(Cc1ccccn1)Cc1ccc(-c2nnn[nH]2)cc1F [Example 57, 4-chloro-N-[2-fluoro-4-(1H-tetrazol-5-yl)benzyl]-N-(pyridin-2 ylmethyl)benzene sulfonamide] | 0.44 | 1780 | 5000 |
| O=C(O)c1ccc(CN(Cc2ccccc2F)S(=O)(=O)c2ccc(Cl)cc2)cc1F [Example 65, 4-{[(4-Chloro-benzenesulfonyl)-(2-fluoro-benzyl)-amino]-methyl}-2-fluorobenzoic acid] | 0.513 | 2300 | 1010 |
| CC(C)(C)c1nc(CN(Cc2ccc(-c3nnn[nH]3)cc2)S(=O)(=O)c2ccc(Cl)cc2)no1 [Example 69, 4-chloro-N-(5-tert-butyl-1,2,4-oxadiazol-3-ylmethyl)-N-[4-(2H-tetrazol-5yl)benzyl]benzene sulfonamide] | 0.254 | 560 | 56 |
| O=S(=O)(c1ccc(Cl)cc1)N(Cc1ccc(-c2nnn[nH]2)cc1)Cc1ccc(F)cc1F [Example 60, 4-chloro-N-(2,4-difluorobenzyl)-N-[4-(2H-tetrazol-5-yl)benzyl]benzenesulfonamide] | 0.681 |  | 1450 |
| O=S(=O)(c1ccc(Cl)cc1)N(Cc1ccc(-c2nnn[nH]2)cc1)Cc1c(F)cccc1F [Example 62, 4-chloro-N-(2,6-difluorobenzyl)-N-[4-(2H-tetrazol-5-yl)benzyl]benzene sulfonamide] | 0.183 | 212 | 44 |
| O=C(O)c1ccc(CN(Cc2ccccn2)S(=O)(=O)c2ccc(Cl)cc2)cc1F [Example 64, 4-{[(4-Chloro-benzenesulfonyl)-pyridin-2-ylmethyl-amino]-methyl}-2-fluoro-benzoic acid] | 1.13 | 3150 | 3040 |
| O=S(=O)(c1ccc(Cl)cc1)N(Cc1ccc(-c2nnn[nH]2)c(F)c1)Cc1ccccn1 [Example 56, 4-chloro-N-[3-fluoro-4-(1H-tetrazol-5-yl)benzyl]-N-(pyridin-2 ylmethyl)benzene sulfonamide] | 1.16 |  | 5300 |
| COCCCS(=O)(=O)NC(=O)c1ccc(CN(Cc2ccccn2)S(=O)(=O)c2ccc(Cl)cc2)cc1 [Example 54, N-(3-methoxy-propane-1-sulfonyl)-4-{[[(4-chlorophenyl)sulfonyl](pyridin-2-yl-methyl)amino]methyl}benzamide] | 3.83 |  | 5600 |
| CC(C)(C)OC(=O)N1C[C@@H]2[C@H](C1)[C@H]2NC(=O)c1ccc(CN(Cc2ccccn2)S(=O)(=O)c2ccc(C#N)cc2)cc1 [Example 96] | 0.01 |  | 10 |
| N#Cc1ccc(S(=O)(=O)N(Cc2ccc(-c3nnn[nH]3)cc2)Cc2ccccc2F)cc1 [Example 83, 4-cyano-N-(2-fluorobenzyl)-N-[4-(2H-tetrazol-5-yl)benzyl]benzenesulfonamide] | 0.236 | 1040 | 10 |
| CS(=O)(=O)CCCS(=O)(=O)NC(=O)c1ccc(CN(Cc2ccccn2)S(=O)(=O)c2ccc(Cl)cc2)cc1 [Example 53, N-(1-methylsulfonyl-3-propylsulfonyl)-4-{[[(4-chlorophenyl)sulfonyl](pyridin-2-yl-methyl)amino]methyl}benzamide] | 1.32 |  | 1700 |
| O=S(=O)(c1ccc(Cl)cc1F)N(Cc1ccc(-c2nnn[nH]2)cc1)Cc1ccccn1 [Example 77] | 0.409 | 409 | 500 |
| O=S(=O)(c1ccc(Cl)cc1)N(Cc1ccc(-c2nnn[nH]2)cc1)Cc1ccccc1Cl [Example 63, 4-chloro-N-(2-chlorobenzyl)-N-[4-(2H-tetrazol-5-yl)benzyl]benzenesulfonamide] | 0.548 |  | 415 |
| N#Cc1ccc(S(=O)(=O)N(Cc2ccc(-c3nnn[nH]3)cc2)Cc2ccccn2)cc1 [Example 47, 4-cyano-N-(pyridin-2-ylmethyl)-N-[4-(2H-tetrazol-5-yl)benzyl]benzenesulfonamide] | 0.233 |  | 1160 |
| O=S(=O)(c1ccc(Cl)cc1)N(Cc1ccc(-c2nnn[nH]2)cc1)Cc1cc2ccccc2cn1 [Example 76, 4-chloro-N-(isoquinolin-3-ylmethyl)-N-[4-(2H-tetrazol-5yl)benzyl]benzene sulfonamide] | 0.911 |  | 300 |
| O=C(NCC1CC1)c1ccc(CN(Cc2ccccc2)S(=O)(=O)c2ccc(Cl)nc2)cc1 [Example 37, 4-{[benzyl({[2-chloropyridine)l]sulfonyl)amino]methyl}-N(cyclopropylmethyl)benzamide] | 0.328 |  | 3350 |
| N#Cc1ccc(S(=O)(=O)N(Cc2ccc(-c3nnn[nH]3)c(F)c2)Cc2ccccc2F)cc1 [Example 81, 4-cyano-N-(2-fluorobenzyl)-N-[3-fluoro-4-(2H-tetrazol-5-yl)benzyl]benzene sulfonamide] | 0.193 | 565 | 79 |
